In patent US20200085791A1, “[(PHENYLSULFONYL)OCTAHYDRO-EPIMINOISOINDOL-YL](1H-1,2,3-TRIAZOL-5-YL)METHANONES” (Bayer Pharma Aktiengesellschaft, priority 2016, published 2020):

Molecular target: T1, recombinant human AKR1C3 (Aldo-keto reductase family 1 member C3) (Homo sapiens, UniProt P42330)
T1 construct: GST (cleaved yes); made in house; host or cells: E. coli
T1 sequence (P42330 1-323): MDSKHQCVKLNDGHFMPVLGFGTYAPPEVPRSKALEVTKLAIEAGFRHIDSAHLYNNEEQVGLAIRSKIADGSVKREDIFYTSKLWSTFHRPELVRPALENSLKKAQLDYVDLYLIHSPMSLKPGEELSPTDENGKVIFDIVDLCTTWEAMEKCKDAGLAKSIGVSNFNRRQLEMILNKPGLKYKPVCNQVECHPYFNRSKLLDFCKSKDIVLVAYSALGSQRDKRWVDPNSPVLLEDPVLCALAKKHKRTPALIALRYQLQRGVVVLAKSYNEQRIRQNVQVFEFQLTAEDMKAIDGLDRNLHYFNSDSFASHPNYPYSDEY
Test: In Vitro Assay 1: AKR1C3-inhibitory activity (Coumberone to Coumberol fluorescence assay)
Assay type: biochemical
Conditions: recombinant enzyme, Coumberone 0.3 μM, NADPH 10 μM, 15 min pre-incubation, 4-parameter fit; average or median values
Description: In Vitro Assay 1: AKR1C3-Inhibitory Activity
The AKR1C3-inhibitory activity of the substances of the present invention was measured in the AKR1C3 assay described in the paragraphs below.
Essentially, the enzyme activity is measured by quantification of the Coumberol from Coumberone (Halim, M., Yee, D. J., and Sames, D., J. AM. CHEM. SOC. 130, 14123-14128 (2008) and Yee, D. J., Balsanek, V., Bauman, D. R., Penning, T. M., and Sames, D., Proc. Natl. Acad. Sci. USA 103, 13304-13309 (2006)). In this test, the increase of the highly fluorescent Coumberol by NADPH- (nicotinamide adenine dinucleotide phosphate)-dependent reduction of the non-fluorescent Coumberone by AKR1C3 can be determined.
The enzyme used was recombinant human AKR1C3 (Aldo-keto reductase family 1 member C3) (GenBank Accession No. NM_003739). This was expressed in E. coli as GST (glutathione S transferase) fusion protein and purified by glutathione Sepharose affinity chromatography. The GST was removed by digestion with thrombin and subsequent size exclusion chromatography (Dufort, I., Rheault, P., Huang, X F., Soucy, P., and Luu-The, V., Endocrinology 140, 568-574 (1999)).
For the assay, 50 nl of a 100-fold concentrated solution of the test substance in DMSO were pipetted into a black low-volume 384-well microtiter plate (Greiner Bio-One, Frickenhausen, Germany), 2.5 μl of a solution of AKR1C3 in assay buffer [50 mM potassium phosphate buffer pH 7, 1 mM DTT, 0.0022% (w/v) Pluronic F-127, 0.01% BSA (w/v) and protease inhibitor cocktail (Complete, EDTA-free Protease Inhibitor Cocktail from Roche)] were added and the mixture was incubated for 15 min to allow pre-binding of the substances to the enzyme prior to the enzyme reaction. The enzyme reaction was then started by addition of 2.5 μl of a solution of NADPH (20 μM→final concentration in 5 μl of assay volume is 10 μM) and Coumberone (0.6 μM→final concentration in 5 μl of assay volume is 0.3 μM) in assay buffer, and the resulting mixture was incubated at […] for the reaction time of typically 90 min. The concentration of the AKR1C3 and the reaction time was adapted to the respective activity of the enzyme preparation and adjusted such that the assay was carried out in the linear range.
Typical AKR1C3 concentrations were in the region of 1 nM. The reaction was stopped by addition of 2.5 μl of a stop solution consisting of the inhibitor EM-1404 [F. Labrie et al. U.S. Pat. No. 6,541,463, 2003] (3 μM→final concentration in 7.5 μl of assay volume is 1 μM). The fluorescence of the Coumberole was then measured at 520 nm (excitation at 380 nm) using a suitable measuring instrument (Pherastar from BMG Labtechnologies). The intensity of the fluorescence was used as a measure of the amount of Coumberole formed and thus of the enzyme activity of AKR1C3. The data were normalized (enzyme reaction without inhibitor—0% inhibition; all other assay components, but no enzyme=100% inhibition).

Row | Compound | IC50 [nM]
1 | O=C(c1c[nH]nn1)N1C[C@@H]2[C@H](C1)[C@@H]1CC[C@H]2N1S(=O)(=O)c1ccc(F)cc1F [Example 13, {(3aR,4S,7R,7aS)-8-[(2,4-difluorophenyl)sulfonyl]octahydro-2H-4,7-epiminoisoindol-2-yl}(1H-1,2,3-triazol-4-yl)methanone] | 102
2 | O=C(c1cnn[nH]1)N1C[C@@H]2[C@H](C1)[C@H]1CC[C@@H]2N1S(=O)(=O)c1cccc2c1OCC2 [Example 62, [(3aR,4R,7S,7aS)-8-(2,3-dihydro-1-benzofuran-7-ylsulfonyl)octahydro-2H-4,7-epiminoisoindol-2-yl](1H-1,2,3-triazol-5-yl)methanone] | 78
3 | O=C(c1cnn[nH]1)N1C[C@@H]2[C@H](C1)[C@H]1CC[C@@H]2N1S(=O)(=O)c1ccc(F)cc1Cl [Example 39, {(3aR,4R,7S,7aS)-8-[(2-chloro-4-fluorophenyl)sulfonyl]octahydro-2H-4,7-epiminoisoindol-2-yl}(1H-1,2,3-triazol-5-yl)methanone] | 4
4 | O=C(c1c[nH]nn1)N1C[C@@H]2[C@H](C1)[C@@H]1CC[C@H]2N1S(=O)(=O)c1cccc(F)c1 [Example 5, {(3aR,4S,7R,7aS)-8-[(3-fluorophenyl)sulfonyl]octahydro-2H-4,7-epiminoisoindol-2-yl}(1H-1,2,3-triazol-4-yl)methanone] | 26
5 | COc1ccc(C#N)cc1S(=O)(=O)N1[C@@H]2CC[C@H]1[C@@H]1CN(C(=O)c3cnn[nH]3)C[C@@H]12 [Example 66, 4-methoxy-3-{[(3aR,4R,7S,7aS)-2-(1H-1,2,3-triazol-5-ylcarbonyl)octahydro-1H-4,7-epiminoisoindol-8-yl]sulfonyl}benzonitrile] | 625
6 | O=C(c1cnn[nH]1)N1[C@@H]2CC[C@H]1[C@H]1CN(S(=O)(=O)c3cc(Cl)cc(Cl)c3)C[C@H]12 [Example 28, {(3aR,4S,7R,7aS)-2-[(3,5-dichlorophenyl)sulfonyl]octahydro-1H-4,7-epiminoisoindol-8-yl}(1H-1,2,3-triazol-5-yl)methanone] | 21
7 | COc1ccc(Cl)cc1S(=O)(=O)N1[C@@H]2CC[C@H]1[C@@H]1CN(C(=O)c3cnn[nH]3)C[C@@H]12 [Example 47, {(3aR,4R,7S,7aS)-8-[(5-chloro-2-methoxyphenyl)sulfonyl]octahydro-2H-4,7-epiminoisoindol-2-yl}(1H-1,2,3-triazol-5-yl)methanone] | 85
8 | Cc1ccc(Br)cc1S(=O)(=O)N1[C@@H]2CC[C@H]1[C@@H]1CN(C(=O)c3cnn[nH]3)C[C@@H]12 [Example 55, {(3aR,4R,7S,7aS)-8-[(5-bromo-2-methylphenyl)sulfonyl]octahydro-2H-4,7-epiminoisoindol-2-yl}(1H-1,2,3-triazol-5-yl)methanone] | 4
9 | O=C(c1c[nH]nn1)N1C[C@@H]2[C@H](C1)[C@@H]1CC[C@H]2N1S(=O)(=O)c1cccc(Cl)c1 [Example 3, {(3aR,4S,7R,7aS)-8-[(3-chlorophenyl)sulfonyl]octahydro-2H-4,7-epiminoisoindol-2-yl}(1H-1,2,3-triazol-4-yl)methanone] | 20
10 | O=C(c1cnn[nH]1)N1C[C@@H]2[C@H](C1)[C@H]1CC[C@@H]2N1S(=O)(=O)c1ccc(Cl)cc1 [Example 31, {(3aR,4R,7S,7aS)-8-[(4-chorophenyl)sulfonyl]octahydro-2H-4,7-epiminoisoindol-2-yl}(1H-1,2,3-triazol-5-yl)methanone] | 174
11 | Cc1ccc(S(=O)(=O)N2[C@@H]3CC[C@H]2[C@H]2CN(C(=O)c4cnn[nH]4)C[C@H]23)cc1 [Example 21, {(3aR,4S,7R,7aS)-8-[(4-methylphenyl)sulfonyl]octahydro-2H-4,7-epiminoisoindol-2-yl}(1H-1,2,3-triazol-5-yl)methanone] | 327
12 | O=C(c1c[nH]nn1)N1C[C@@H]2[C@H](C1)[C@@H]1CC[C@H]2N1S(=O)(=O)c1cc(F)cc(F)c1 [Example 7, {(3aR,4S,7R,7aS)-8-[(3,5-difluorophenyl)sulfonyl]octahydro-2H-4,7-epiminoisoindol-2-yl}(1H-1,2,3-triazol-4-yl)methanone] | 74
13 | O=C(c1c[nH]nn1)N1C[C@@H]2[C@H](C1)[C@@H]1CC[C@H]2N1S(=O)(=O)c1c(F)cccc1F [Example 12, {(3aR,4S,7R,7aS)-8-[(2,6-difluorophenyl)sulfonyl]octahydro-2H-4,7-epiminoisoindol-2-yl}(1H-1,2,3-triazol-4-yl)methanone] | 43
14 | O=C(c1c[nH]nn1)N1[C@@H]2CC[C@H]1[C@H]1CN(S(=O)(=O)c3cccc(S(F)(F)(F)(F)F)c3)C[C@H]12 [Example 10, [(3aR,4S,7R,7aS)-2-{[3-(pentafluoro-λ^6-sulfanyl)phenyl]sulfonyl}octahydro-1H-4,7-epiminoisoindol-8-yl](1H-1,2,3-triazol-4-yl)methanone] | 121
15 | O=C(c1cnn[nH]1)N1C[C@@H]2[C@H](C1)[C@@H]1CC[C@H]2N1S(=O)(=O)c1ccc(F)cc1 [Example 22, {(3aR,4S,7R,7aS)-8-[(4-fluorophenyl)sulfonyl]octahydro-2H-4,7-epiminoisoindol-2-yl}(1H-1,2,3-triazol-5-yl)methanone] | 113
16 | COc1cc(F)ccc1S(=O)(=O)N1[C@@H]2CC[C@H]1[C@@H]1CN(C(=O)c3cnn[nH]3)C[C@@H]12 [Example 65, {(3aR,4R,7S,7aS)-8-[(4-fluoro-2-methoxyphenyl)sulfonyl]octahydro-2H-4,7-epiminoisoindol-2-yl}(1H-1,2,3-triazol-5-yl)methanone] | 45
17 | O=C(c1cnn[nH]1)N1C[C@@H]2[C@H](C1)[C@H]1CC[C@@H]2N1S(=O)(=O)c1cc(F)ccc1Cl [Example 63, {(3aR,4R,7S,7aS)-8-[(2-chloro-5-fluorophenyl)sulfonyl]octahydro-2H-4,7-epiminoisoindol-2-yl}(1H-1,2,3-triazol-5-yl)methanone] | 2
18 | O=C(c1cnn[nH]1)N1C[C@@H]2[C@H](C1)[C@H]1CC[C@@H]2N1S(=O)(=O)c1ccccc1 [Example 20, [(3aR,4R,7S,7aS)-8-(phenylsulfonyl)octahydro-2H-4,7-epiminoisoindol-2-yl](1H-1,2,3-triazol-5-yl)methanone] | 45
19 | Cc1cc(C)c(S(=O)(=O)N2[C@@H]3CC[C@H]2[C@@H]2CN(C(=O)c4cnn[nH]4)C[C@@H]23)c(C)c1 [Example 34, 1H-1,2,3-triazol-5-yl{(3aR,4R,7S,7aS)-8-[(2,4,6-trimethylphenyl)sulfonyl]octahydro-2H-4,7-epiminoisoindol-2-yl}methanone] | 27
20 | O=C(c1c[nH]nn1)N1C[C@@H]2[C@H](C1)[C@@H]1CC[C@H]2N1S(=O)(=O)c1cc(F)ccc1F [Example 18, {(3aR,4S,7R,7aS)-8-[(2,5-difluorophenyl)sulfonyl]octahydro-2H-4,7-epiminoisoindol-2-yl}(1H-1,2,3-triazol-4-yl)methanone] | 19
21 | O=C(c1cnn[nH]1)N1C[C@@H]2[C@H](C1)[C@H]1CC[C@@H]2N1S(=O)(=O)c1cccc([N+](=O)[O-])c1 [Example 33, {(3aR,4R,7S,7aS)-8-[(3-nitrophenyl)sulfonyl]octahydro-2H-4,7-epiminoisoindol-2-yl}(1H-1,2,3-triazol-5-yl)methanone] | 174
22 | N#Cc1cccc(S(=O)(=O)N2[C@@H]3CC[C@H]2[C@H]2CN(C(=O)c4cnn[nH]4)C[C@H]23)c1 [Example 26, 3-{[(3aR,4S,7R,7aS)-2-(1H-1,2,3-triazol-5-ylcarbonyl)octahydro-1H-4,7-epiminoisoindol-8-yl]sulfonyl}benzonitrile] | 322
